Measurements reported in patent US10947188B2, “Small molecule ferroptosis inducers” (THE TRUSTEES OF COLUMBIA UNIVERSITY IN THE CITY OF NEW YORK, priority 2016, dated 2021).

Test system: HT-1080 cells
Experiment: Lethality of commercially available CIL41/70 structural analogs
Format: cell-based
Details: tested once in technical triplicates; for EC50: Homo sapiens
Experimental: 1,000 cells per 36 μl were seeded in each well in 384-well plates. Lethal compounds were dissolved, and a twofold, 12-point dilution series was prepared in DMSO. Compound solutions were further diluted with media at 1:25, and 4 μl per well of the diluted solutions was added to cell cultures immediately after cells were seeded. […] When other cell-death-modulating compounds (100 nM sodium selenite, 1 μM cerivastatin, 100 μg/mL mevalonic acid) were used in cotreatments, they were supplemented to cell culture for 24 h before lethal compounds were added to cell culture, after which cells were further incubated for 24 h at 37° C. under 5% CO2. On the day of the viability measurement, we added 10 μl per well of 50% Alamar Blue diluted in media (Life Technologies) and further incubated the cells at 37° C. for 6 h. Fluorescence intensity (excitation/emission: 530/590) was measured with a Victor 3 plate reader (PerkinElmer), and the normalized viability was calculated as VL=(IL−I0)/(IV−I0), where VL, I0, IV, and IL are the normalized viability and the raw fluorescence intensities from the wells containing media, cells treated with a vehicle (negative control), and cells with the lethal compound (L), respectively. When the effect of a chemical modulator (M) on L was calculated, we instead used the equation VL|M=(IM,L−I0)/(IM,V−I0), where VL|M, IM,L and IM,V are the normalized viability, and fluorescence intensity from cells treated with […], respectively. The viability was typically measured in biological triplicate unless otherwise specified. A representative dose-response curve, the mean and standard error of normalized viability from one replicate were plotted. HT-1080 viability after modulator treatments corresponding to FIG. 3C and FIGS. 5E-5F is available in FIGS. 19A-19C.
Their lethality was tested once in HT-1080 cells in technical triplicates.

| Compound | EC50 [µg/mL] | EC50 of CIL41/70 and structural analogs (lethality) |
| --- | --- | --- |
| COc1ccccc1OCC(=O)O/N=C(\N)Cc1ccc(Cl)cc1Cl [CB101] | > 20 |  |
| COc1ccc(CC(=O)O/N=C(\N)Cc2ccc([N+](=O)[O-])cc2)cc1OC [CB51] | > 20 |  |
| N/C(Cc1cccs1)=N\OC(=O)COc1ccc(Br)cc1 [CB30] | > 20 |  |
| N/C(Cc1ccc(Cl)cc1)=N\OC(=O)Cc1ccccc1 [ZE16] | > 20 |  |
| COc1ccc(C/C(N)=N/OC(=O)COc2ccc(Br)c(C)c2)cc1OC [CB36] | > 20 |  |
| COc1ccc(OCC(=O)O/N=C(\N)Cc2ccc(Cl)cc2Cl)cc1 [CB72] | > 20 |  |
| Cc1nn(C/C(N)=N/OC(=O)Cn2nc(C(F)(F)F)cc2C2CC2)c(C)c1[N+](=O)[O-] [ZE9] | > 20 |  |
| CC(=NOCC(=O)ON=C(N)COc1cccc(Cl)c1)c1ccc(Cl)cc1 [MB3] |  | MB3 (>20 ug/mL) |
| COc1ccccc1C/C(N)=N/OC(=O)COc1ccc(C)cc1C [CB15] | > 20 |  |
| Cc1cc(OCC(=O)O/N=C(\N)Cc2ccc(Cl)cc2Cl)cc(C)c1Br [CB106] | > 20 |  |
| CCc1ccc(OCC(=O)O/N=C(\N)Cc2ccc([N+](=O)[O-])cc2)cc1 [CB79] | > 20 |  |
| COc1ccc(C/C(N)=N/OC(=O)COc2ccccc2C)cc1 [CB31] | > 20 |  |
| COc1ccc(OCC(N)=NOC(=O)CON=C(C)c2ccc(Cl)cc2)cc1 [MB2] |  | MB2 (>20 ug/mL) |
| N/C(=N\OC(=O)Cc1ccccc1F)C12CC3CC(CC(C3)C1)C2 [EN8] | > 20 |  |
| CC(=O)NC(=N/OC(C)=O)/C(=N/OC(C)=O)c1nc2ccccc2[nH]1 [CB20] | > 20 |  |
| Cc1ccc(CC(=O)O/N=C(\N)Cc2ccc(Cl)cc2Cl)cc1 [CB142] | > 20 |  |
| CC(C)c1ccc(OCC(=O)O/N=C(\N)Cc2ccc([N+](=O)[O-])cc2)c(Br)c1 [CB130] | > 20 |  |
| N/C(CC(=O)NC1CCCCC1)=N\OC(=O)C1CCCN1C(=O)c1cccs1 (stereo not shown) [EN9] | > 20 |  |
| COc1ccc(CC(=O)O/N=C(/N)Cn2nc(C)c([N+](=O)[O-])c2C)cc1 [ZE5] | > 20 |  |
| COc1ccccc1C/C(N)=N/OC(=O)COc1ccc(C(C)(C)C)cc1 [CB5] | > 20 |  |
| CC(C)(Oc1ccc(Cl)cc1)C(=O)O/N=C(\N)Cc1ccc([N+](=O)[O-])cc1 [CB117] | > 20 |  |
| Cc1ccc(CC(=O)O/N=C(\N)Cc2cccc3ccccc23)cc1 [CB132] | > 20 |  |
| N/C(Cc1cccc2ccccc12)=N\OC(=O)CC1CCCCC1 [CB85] | > 20 |  |
| Cc1cc(C(F)(F)F)nn1C/C(N)=N/OC(=O)CC1CC2CCC1C2 (stereo not shown) [ZE10] | > 20 |  |
| COc1ccccc1C/C(N)=N/OC(=O)COc1ccc(Br)c(C)c1 [CB45] | > 20 |  |
